# Assay results taken from a compilation of properties of binary mixtures (doi:10.1016/j.molliq.2017.08.056).
# “And” between values parts separate entries of the source, which are not always exact repeats. Equal entries are not always repeated.
# Assay: xn = mol fraction of the nth substance listed
# Conditions: 101 kPa
"electrical conductivity (288.15 K, x2 = 0)","viscosity (288.15 K, x2 = 0)","electrical conductivity (298.15 K, x2 = 0)","electrical conductivity (308.15 K, x2 = 0)","electrical conductivity (288.15 K, x1 = 0.0001)","electrical conductivity (298.15 K, x1 = 0.0001)","viscosity (298.15 K, x1 = 0.0001)","electrical conductivity (308.15 K, x1 = 0.0001)","viscosity (308.15 K, x1 = 0.0001)",SMILES
0.0001 S/m,1.133 mPa·s,0.0001 S/m,0.0002 S/m,–,–,–,–,–,O + CCCC[n+]1ccn(C)c1.[Br-]
–,–,–,–,0.0311 S/m and 0.0454 S/m and 0.0612 S/m,0.0389 S/m and 0.0568 S/m and 0.0759 S/m,0.892 mPa·s and 0.894 mPa·s,0.069 S/m,0.731 mPa·s,CCCC[n+]1ccn(C)c1.[Br-] + O
